Assay [1] has as its system DIO mice. Briefly: Chronic GIPA-2 study: body weight and food intake in DIO mice. The assay is classed as in vivo, mouse. Particulars: 28 days, HFD; liraglutide 0.2 mg/kg SC daily, GIPA-2 10 mg/kg SC daily; n = 10; vs vehicle (combination: vs liraglutide). As for the experimental part:
(§1) For studying the chronic effects of GIPA-2, male C57BL/6JRj mice (n = 40) were fed a HFD (SSNIFF® diet #12492) for 43 weeks. DIO mice were randomized (n = 10 per group) based on baseline blood glucose and body weight. Liraglutide was dissolved in PBS plus 0.1% BSA (Vehicle1) and GIPA-2 in PBS (vehicle 2). Mice received one of the following four treatments daily for 28 days while still maintained on HFD: (1) vehicle 1 (SC) and vehicle 2 (SC); (2) 0.2 mg/kg liraglutide (SC) and vehicle 2; (3) vehicle 1 (SC) and 10 mg/kg GIPA-2 (SC); and (4) 0.2 mg/kg liraglutide (SC) plus 10 mg/kg GIPA-2 (SC). […] Fasted (4 hrs) blood glucose and insulin were measured on study day -4, 10 and 26. […] Blood glucose was measured before their daily dosing and at 0, 15, 30 60, 120, 180 and 240 min after glucose administration. […] Blood glucose was measured before their daily dosing and at 0, 15, 30 60, 120, 180 min after glucose administration. […]
Fig 2 Effects of chronic GIPR antagonism on body weight, food intake, and fasting blood glucose and insulin. […] Statistical analysis was calculated using two-way ANOVA with Tukey’s post-hoc test and one-way ANOVA for AUC with Dunnett’s post-hoc test. *: p< 0.05, **: p < 0.01, ***: p < 0.001, ****: p<0.0001 compared to vehicle.

The subject of assay [2] is DIO mice. The experiment in a line: Chronic GIPA-2 study: OGTT in DIO mice. Type of assay: in vivo, mouse. Particulars: day 17; oral glucose 2 g/kg one hour after daily dose; liraglutide 0.2 mg/kg SC, GIPA-2 10 mg/kg SC; n = 10. Here is the method: as §1
Fig 3 Effects of GIPA-1 and GIPA-2 on oral glucose tolerance and insulin responses in DIO mice. […] Statistical analysis was calculated using two-way ANOVA with Tukey’s post-hoc test and one-way ANOVA with Dunnett’s post-hoc test. *: p< 0.05, **: p < 0.01, ***: p < 0.001, ****: p<0.0001 compared to vehicle.

One substance from publication PMC8011784, “Chronic peptide-based GIP receptor inhibition exhibits modest glucose metabolic changes in mice when administered either alone or combined with GLP-1 agonism” (PLoS ONE, 2021) can be followed below.

Consider liraglutide, for which, in the assay with DIO mice [1], the body weight entry is “reduced both body weight and food intake”; the cumulative food intake entry was “reduced both body weight and food intake”. Besides, the “glucose excursion in OGTT” value in the assay with DIO mice [2] is recorded as “beneficial glucose lowering effects of liraglutide”.
